Laboratory results taken from patent US20250213581A1, “COMBINATION THERAPY OF A PI3K INHIBITOR AND KRAS INHIBITOR AND METHODS OF USE THEREOF” (Totus Medicines Inc., priority 2022, published 2025).

Legend:
Calu-1 (Lung) cell lines = test: Cell proliferation assay and synergy analysis, Compound I with Adagrasib; details: Homo sapiens, Calu-1, 72 h, read-out: Ave of Inhibition (%)
Source text: (§4) The cell lines tested included: UM-UC-3 (bladder), KYSE-410 (HN/Esophagus), SW1463 (rectum), Calu-1 (Lung), NCI-H358 (Lung), SW837 (Rectum), SW756 (Cervix), NCI-H2122 (Lung), NCI-H1373 (Lung), NCI-H1792 (Lung), NCI-H23 (Lung), MIA PaCa-2 (Pancreas), and HCC44 (Lung).
(§5) Cells were recovered and maintained in appropriate culture media. The cells were harvested respectively during the logarithmic growth period. The cells were then resuspended and counted using a Vi cell counter (The cell viability was measured by trypan blue exclusion assay). The cells were then diluted and 80 μL of the cell suspensions were added to 96-well plates according to plate map with final cell density. Two duplicate plates were set up. One is for day 0 reading (T0) and the other was cultured in the incubator for reading at the end point. The incubated plates were incubated overnight in humidified incubator at 37° C. with 5% CO2.
(§6) At day 0, 20 μL of culture medium was added to each well for T0 reading. 10 μL of culture medium was added to each well for day 0 (T0) reading. Then, 50 μl of CellTiter-Glo® Reagent was added to each well. The contents were then mixed for 2 minutes on an orbital shaker to facilitate cell lysis. The plates were then allowed to incubate at room temperature for 10 minutes to stabilize luminescent signal. Luminescence was then recorded using an EnVision Multi Label Reader. […] The screening plates were then placed back into the incubator for the appropriate treatment time (3 days).
(§7) For the endpoint CTG reading, 50 μL of CellTiter-Glo® Reagent was added to each well. The contents were then mixed for 2 minutes on an orbital shaker to facilitate cell lysis. The plate was allowed to incubate at room temperature for 10 minutes to stabilize luminescent signal. Luminescence was then recorded using an EnVision Multi Label Reader. The surviving rate (%)=(LumTest article−LumMedium control)/(LumNone treated−LumMedium control)×100%.
(§8) A score higher than 5 indicates synergy, and a score less than −5 indicates antagonism.

NCI-H1792 (Lung) = test: Cell proliferation assay (CellTiter-Glo, 3 days), single agent; assay type: cell-based; details: Homo sapiens
Method: (§1) Two duplicate plates were set up.
(§2) At day 0, 10 μL culture medium to each well for T0 reading. […] Compound I was diluted and 10 μL of each 10× compound I from working solutions for a concentration ranging from 10 μM to about 0.005 μM. Cisplatin was diluted to about 3.33 mM to about 150 nM.
(§3) IC50's were determined for each cell line.

SW837 (Rectum) = test: as above; assay type: cell-based; details: Homo sapiens, SW837, 72 h, read-out: Absolute IC50 (μM)
Method: as §1, §2, §3

UM-UC-3 (bladder) = test: as above; assay type: cell-based; details: Homo sapiens, UMUC3, 72 h, read-out: Absolute IC50 (μM)
Method: as §1, §2, §3

Calu-1 (Lung) = test: as above; assay type: cell-based; details: Homo sapiens, Calu-1, 72 h, read-out: Absolute IC50 (μM)
Method: as §1, §2, §3

NCI-H2122 (Lung) = test: as above; assay type: cell-based; details: Homo sapiens, NCI-H2122, read-out: Average Inhibition (%) (N = 3)
Method: as §1, §2, §3

NCI-H1373 (Lung) = test: as above; assay type: cell-based; details: Homo sapiens
Method: as §1, §2, §3

NCI-H23 (Lung) = test: as above; assay type: cell-based; details: Homo sapiens
Method: as §1, §2, §3

HCC44 (Lung) = test: as above; assay type: cell-based; details: Homo sapiens, HCC44, read-out: Average Inhibition (%) (N = 3)
Method: as §1, §2, §3

[1] = test system: SW756 (Cervix) cell lines; test: Cell proliferation assay and synergy analysis, Compound I with Adagrasib; details: Homo sapiens, SW756, 72 h, read-out: Ave Inhibition (%)
Source text: as §4, §5, §6, §7, §8

[2] = test system: NCI-H358 (Lung) cell lines; test: as above; details: Homo sapiens, NCI-H358, 72 h, read-out: Ave of Inhibition (%)
Source text: as §4, §5, §6, §7, §8

[3] = NCI-H1792, read-out: Average Inhibition (%) (N = 3)
[4] = NCI-H1373, read-out: Average Inhibition (%) (N = 3)
[5] = NCI-H23, read-out: Average Inhibition (%) (N = 3)

SMILES: C=CC(=O)NCC(=O)N1CCN(Cc2cc3c(N4CCOCC4)nc(-c4cnc(NC(=O)OC)cc4C(F)(F)F)nn3c2)CC1 [Compound I, methyl (5-(6-((4-(acryloylglycyl)piperazin-1-yl)methyl)-4-morpholinopyrrolo[2,1-f][1,2,4]triazin-2-yl)-4-(trifluoromethyl)pyridin-2-yl)carbamate]
- inhibition at 0.0046 µM (Calu-1 (Lung) cell lines): -8.39%
- inhibition at 0.0137 µM (Calu-1 (Lung) cell lines): -5.3%
- inhibition at 0.0412 µM (Calu-1 (Lung) cell lines): -3.3%
- inhibition at 0.1235 µM (Calu-1 (Lung) cell lines): -0.27%
- inhibition at 0.3704 µM (Calu-1 (Lung) cell lines): 3.9%
- inhibition at 1.1111 µM (Calu-1 (Lung) cell lines): 31%
- inhibition at 3.3333 µM (Calu-1 (Lung) cell lines): 11.6%
- inhibition at 10 µM (Calu-1 (Lung) cell lines): 22.6%
- IC50 (NCI-H1792 (Lung); NCI-H1792, 72 h, read-out: Absolute IC50 (μM)): > 10 µM
- inhibition at 0.0046 µM (NCI-H1792 (Lung); [3]): -7.35%
- inhibition at 0.0137 µM (NCI-H1792 (Lung); [3]): -1.4%
- inhibition at 0.0412 µM (NCI-H1792 (Lung); [3]): 2.27%
- inhibition at 0.1235 µM (NCI-H1792 (Lung); [3]): 6.64%
- inhibition at 0.3704 µM (NCI-H1792 (Lung); [3]): 7.05%
- inhibition at 1.1111 µM (NCI-H1792 (Lung); [3]): 12.2%
- inhibition at 3.3333 µM (NCI-H1792 (Lung); [3]): 22.4%
- inhibition at 10 µM (NCI-H1792 (Lung); [3]): 34%
- IC50 (SW837 (Rectum)): > 10 µM
- IC50 (UM-UC-3 (bladder)): > 10 µM
- IC50 (Calu-1 (Lung)): > 10 µM
- inhibition at 0.0046 µM (NCI-H2122 (Lung)): -2.13%
- inhibition at 0.0137 µM (NCI-H2122 (Lung)): 2.34%
- inhibition at 0.0412 µM (NCI-H2122 (Lung)): 13.6%
- inhibition at 0.1235 µM (NCI-H2122 (Lung)): 24%
- inhibition at 0.3704 µM (NCI-H2122 (Lung)): 36.5%
- inhibition at 1.1111 µM (NCI-H2122 (Lung)): 45.6%
- inhibition at 3.3333 µM (NCI-H2122 (Lung)): 52.5%
- inhibition at 10 µM (NCI-H2122 (Lung)): 63.2%
- IC50 (NCI-H1373 (Lung); NCI-H1373, 72 h, read-out: Absolute IC50 (μM)): > 10 µM
- inhibition at 0.0046 µM (NCI-H1373 (Lung); [4]): -3.29%
- inhibition at 0.0137 µM (NCI-H1373 (Lung); [4]): -6.68%
- inhibition at 0.0412 µM (NCI-H1373 (Lung); [4]): -5.53%
- inhibition at 0.1235 µM (NCI-H1373 (Lung); [4]): -6.17%
- inhibition at 0.3704 µM (NCI-H1373 (Lung); [4]): -5.69%
- inhibition at 1.1111 µM (NCI-H1373 (Lung); [4]): -4.7%
- inhibition at 3.3333 µM (NCI-H1373 (Lung); [4]): -9.75%
- inhibition at 10 µM (NCI-H1373 (Lung); [4]): 8.28%
- IC50 (NCI-H23 (Lung); NCI-H23, 72 h, read-out: Absolute IC50 (μM)): > 10 µM
- inhibition at 0.0046 µM (NCI-H23 (Lung); [5]): 6.06%
- inhibition at 0.0137 µM (NCI-H23 (Lung); [5]): 7.11%
- inhibition at 0.0412 µM (NCI-H23 (Lung); [5]): 12.1%
- inhibition at 0.1235 µM (NCI-H23 (Lung); [5]): 15.4%
- inhibition at 0.3704 µM (NCI-H23 (Lung); [5]): 14.9%
- inhibition at 1.1111 µM (NCI-H23 (Lung); [5]): 23.4%
- inhibition at 3.3333 µM (NCI-H23 (Lung); [5]): 28.6%
- inhibition at 10 µM (NCI-H23 (Lung); [5]): 37.2%
- inhibition at 0.0046 µM (HCC44 (Lung)): -3.82%
- inhibition at 0.0137 µM (HCC44 (Lung)): -4.27%
- inhibition at 0.0412 µM (HCC44 (Lung)): -1.38%
- inhibition at 0.1235 µM (HCC44 (Lung)): 1.74%
- inhibition at 0.3704 µM (HCC44 (Lung)): 10.1%
- inhibition at 1.1111 µM (HCC44 (Lung)): 19.7%
- inhibition at 3.3333 µM (HCC44 (Lung)): 33.1%
- inhibition at 10 µM (HCC44 (Lung)): 43.7%
- inhibition at 0.0046 µM [1]: -1.03%
- inhibition at 0.0137 µM [1]: -0.86%
- inhibition at 0.0412 µM [1]: 1.55%
- inhibition at 0.1235 µM [1]: 4.83%
- inhibition at 0.3704 µM [1]: 8.26%
- inhibition at 1.1111 µM [1]: 14.3%
- inhibition at 3.3333 µM [1]: 21.6%
- inhibition at 10 µM [1]: 34.6%
- inhibition at 0.0046 µM [2]: 0.76%
- inhibition at 0.0137 µM [2]: 4.1%
- inhibition at 0.0412 µM [2]: 10.8%
- inhibition at 0.1235 µM [2]: 17.1%
- inhibition at 0.3704 µM [2]: 25%
- inhibition at 1.1111 µM [2]: 38.9%
- inhibition at 3.3333 µM [2]: 50.4%
- inhibition at 10 µM [2]: 61%
